Measurements reported in patent publication US10385085B2, “Crystal forms of sialic acid or salt or solvate thereof” (Ultragenyx Pharmaceutical Inc., priority 2015, dated 2019).
Converted amounts (≈) assume the structure as drawn. “And” between values parts separate entries of the source, which are not always exact repeats. Identical values can stand only once. Like-named read-outs stand apart in the source and are kept apart here. Values belong to the molecule of their own block, whether it stands above or below them.

Key:
Assay type in all cases: physicochemical
[1] = Thermogravimetric/Differential Thermal Analysis (TG/DTA)
Protocol: Approximately, 10 mg of material was weighed into an open aluminium pan and loaded into a simultaneous thermogravimetric/differential thermal analyser (TG/DTA) and held at room temperature. The sample was then heated at a rate of 10° C./min from 25° C. to 300° C. during which time the change in sample weight was recorded along with any differential thermal events (DTA). Nitrogen was used as the purge gas, at a flow rate of 300 cm^3/min.

[2] = Approximate aqueous solubility of the solid forms (solvent addition method); conditions: for Aqueous Solubility, Solubility in g/L / solubility: deionized water; for solubility: water, thermodynamic from solid
Protocol: (§1) The selected Forms (5, 3 and 2) were fully characterized by PLM, XRPD, ^1H NMR and IR spectroscopy, DSC, TG/DTA, GVS (with post-GVS XRPD), Karl Fischer titration for water content and HPLC analysis for purity. All of these forms with the addition of Form 1 were also placed under a stress-stability test, at three different conditions for one week (ambient conditions, 40° C. and 75% relative humidity, 80° C.). In addition to this, an approximate solubility test was conducted on the different solid forms using a solvent addition method.
Approximately 50 mg of each form (1, 2, 3 and 5) was weighed into a 2 ml vial. 20 μl aliquots of deionized water was added to each vial until complete dissolution of the solid was observed. The volume was noted down and the approximate water solubility calculated.

[3] = Gravimetric Vapour Sorption (GVS) with post-GVS XRPD; conditions: for GVS mass difference: between 0-90% relative humidity; for Polymorphic form after GVS (XRPD): material reclaimed after GVS run
Protocol: Approximately 10-20 mg of sample was placed into a mesh vapour sorption balance pan and loaded into an IGASorp Moisture Sorption Analyser balance by Hiden Analytical. The sample was subjected to a ramping profile from 40-90% relative humidity (RH) at 10% increments, maintaining the sample at each step until a stable weight had been achieved (98% step completion). After completion of the sorption cycle, the sample was dried using the same procedure to 0% RH, and finally taken back to the starting point of 40% RH. The weight change during the sorption/desorption cycles were plotted, allowing for the hygroscopic nature of the sample to be determined.

HPLC-UV chemical purity = conditions: for HPLC (purity): summary Table 13
Protocol: The chemical purity was measured on an Agilent HP1100 HPLC system fitted with an Agilent variable wavelength UV detector. Samples were prepared by dissolving in diluent at a concentration of 1 mg/mL before being analysed under the following HPLC conditions: […]

[4] = PLM (morphology) of the solid forms; conditions: for PLM (morphology): particle shape
[5] = 7 day stress stability, physical form by XRPD; conditions: for Stability as a physical form (XRPD): 1 week stress test, overall
Protocol: XRPD analysis was carried out on a Panalytical X′pert Pro, scanning the samples between 3 and 35° […]. The material was gently ground and loaded onto a multi well plate with Kapton or mylar polymer film to support the sample. The multi well plate was then loaded into a Panalytical diffractometer running in transmission mode and analysed, using the following experimental conditions.
as §1
(§2) All four Forms (1, 2, 3 and 5) were placed under 7 day stress stability testing. This was carried out by placing the four forms under three different conditions for one week. Their physical stability was then analyzed by comparing the diffractograms and the chemical stability was checked by HPLC.

[6] = 7 day stress stability, chemical stability by HPLC; conditions: for Sialic acid Area % (HPLC): two injections; for Chemical stability: 1 week stress test, conditions studied; for HPLC purity of recovered samples: all three conditions (ambient; 40° C./75% RH; 80° C.)
Protocol: The chemical purity was measured on an Agilent HP1100 HPLC system fitted with an Agilent variable wavelength UV detector. Samples were prepared by dissolving in diluent at a concentration of 1 mg/mL before being analysed under the following HPLC conditions:
as §1, §2

[7] = Desolvation / dehydration on heating, form checked by XRPD
Protocol: A weight loss of 33.1% is observed, prior to decomposition, which coincides with an onset in the DTA profile at ca. 108.8° C. (onset of the endotherm). The second endothermic event corresponds with decomposition at ca. 186.3° C. (onset of the endotherm). The 33.1% of loss of weight corresponds to 1.96 molecules of DMSO for 1 molecule of sialic acid. It is thus very likely that Form 4 is a stoichiometric bis-solvate (2:1). The ^1H NMR spectrum is consistent with sialic acid. The only noticeable difference between the spectra of Form 1 and Form 4 is the relative size of the resonance at ca. 2.5 ppm. This is due to DMSO, which further supports that Form 4 is a DMSO solvate.
Referring to PLM images (FIG. 20), the habit of Form 5 is block-like with a length around 100 μm. Strong birefringence is observed. […] Further weight losses are present, which may be due to decomposition. The loss of weight of 10.5% correlates very well with the KF Titration (10.34%). It is very likely Form 5 is a dihydrate (expected loss of weight for a dihydrate is 10.44%). […] This possibly indicates the formation of a new anhydrous form by desolvation of Form 5 (onset seen for Form 1 is ca. 188.9° C.). The difference between the TG/DTA and the DSC traces is likely to be due to the difference in pan (open pan for TG/DTA and pierced closed pan for DSC). […]

[8] = Differential Scanning Calorimetry (DSC)
Protocol: Approximately, 5 mg of material was weighed into an aluminium DSC pan and sealed non-hermetically with a pierced aluminium lid. The sample pan was then loaded into a Seiko DSC6200 (equipped with a cooler) cooled and held at 25° C. Once a stable heat-flow response was obtained, the sample and reference were heated to 210° C. at a scan rate of 10° C./min and the resulting heat flow response monitored. Nitrogen was used as the purge gas, at a flow rate of 50 cm^3/min.

[9] = Competitive slurry experiments (polymorph stability)
Protocol: Competitive slurry experiments were conducted between Forms 1 and 3 and between Forms 1 and 2. A mixture of the two forms (25 mg per form) being investigated was slurried in 1 mL of solvent for one day at 20° C. or 60° C. in five different solvents (acetone, acetic acid, ethanol, ethyl acetate and ethynol).
Competitive slurries were performed to compare the relative stability between two forms at a given temperature in a given solvent.

[10] = Slurries of Form 1 at 5° C. followed by XRPD over time
Protocol: Due to the discolouration of samples during slurry experiments in water and water/acetic acid mixtures, slurries of sialic acid (Form 1) were made at 5° C. in water, water/acetic acid (80/20 v/v) mixture, ethyl acetate and acetic acid and stirred for […]. Diffractograms of the slurried solids were recorded after 10 minutes, 4 hours, 20 hours and 28 hours. Form 5 was obtained in slurries containing water at all time points. Form 1 was obtained for acetic acid and ethyl acetate for all time points.

[11] = 1 week under ambient conditions
[12] = after 1 week under 40° C., 75% RH
[13] = after 1 week under ambient conditions
[14] = acetone, ethanol, ethyl acetate, ethynol, 20° C. or 60° C.

TGA (weight loss) [1]: 10.5%
TGA temperature of the weight loss [1]: (88.4° C.)
Approximate solubility ([2]; aqueous): 96.6 g/L
Aqueous Solubility, Solubility in g/L ([2]; approximate, solvent addition): 96.6 g/L
Hygroscopicity (GVS) [3]: very slightly hygroscopic
Stability when exposed to different humidity levels [3]: stable
XRPD post DVS [3]: no change
GVS mass difference [3]: 1.45%
Polymorphic form after GVS (XRPD) [3]: same polymorphic form (Form 5)
Area % Sodium Pyruvate (HPLC) (HPLC-UV chemical purity; no stress condition stated): 0.000%
HPLC (purity) (HPLC-UV chemical purity): 99.80% and 99.90%
PLM (morphology), particle size [4]: < 100 μm
PLM (morphology) [4]: Blocks
Physical form (XRPD) after stress ([5]; 1 week at 40° C./75% RH): stable
Physical form (XRPD) after stress ([5]; 1 week at 80° C.): converts to an unknown form
Physical form (XRPD) after stress [5, 11]: stable
Stability - XRPD post Stability ([5]; at 80° C.): New form 80 °C
Stability - XRPD post Stability ([5]; at RT): Form 5 at RT
HPLC (purity) ([6]; after 1 week at 80° C.): 96.8%
Sialic acid Area % (HPLC) [6, 12]: 99.899% and 99.919%
Sodium Pyruvate Area % (HPLC) ([6]; after 1 week under 80° C.): 0.559%
HPLC (purity) ([6]; after 1 week, both ambient and 40° C./75% RH samples): higher than 99.9%
Area % Acetic acid (HPLC) ([6]; stability under 80° C.): 0.000%
Area % N-acetyl-D-glucosamine (HPLC) ([6]; stability under 80° C.): 0.000%
Area % N-acetyl-D-mannosamine (HPLC) ([6]; stability under 80° C.): 0.000%
Form after dehydration (XRPD) ([7]; held at 90° C. for 35 min in TG/DTA apparatus): unknown form
SMILES: CC(=O)N[C@H]1[C@H]([C@H](O)[C@H](O)CO)OC(O)(C(=O)O)C[C@@H]1O (stereo partly drawn) [Form 5, N-acetylneuraminic acid]

TGA (weight loss) [1]: 15.3%
TGA Decomposition temperature [1]: 176.2° ° C.
TGA temperature of the weight loss [1]: (80° C.)
Approximate solubility ([2]; aqueous): 188.2 g/L
Aqueous Solubility, Solubility in g/L ([2]; approximate, solvent addition): 188.2 g/L
DSC (thermal events) Endotherm [8]: 107° ° C. and 181.0° ° C.
DVS (hygroscopicity) [3]: Goes to form 1
XRPD post DVS [3]: change
Polymorphic form after GVS (XRPD) [3]: converts to Form 1
GVS weight loss (desolvation) ([3]; on increase of humidity): 16%
DVS, RH at which the form goes to form 1 ([3]; relative humidity): RH >50%
HPLC (purity) (HPLC-UV chemical purity): 99.8%
PLM (morphology), particle size [4]: <30 μm
PLM (morphology) [4]: Small needles
Physical form (XRPD) after stress ([5]; 1 week at 80° C.): to Form 2
Stability as a physical form (XRPD) [5]: not stable
Physical form (XRPD) after stress [5, 11]: converts to Form 2
Stability - XRPD post Stability ([5]; at 80° C.): Form 2 at 80 °C
Stability - XRPD post Stability ([5]; at RT): Form 2 at RT
Chemical stability [6]: moderate chemical stability
Sialic acid Area % (HPLC) [6, 12]: 98.011% and 98.031%
Sialic acid Area % (HPLC) ([6]; after 1 week under 80° C.): 99.526% and 99.523%
Sialic acid Area % (HPLC) [6, 13]: 99.684% and 99.715%
HPLC purity of recovered samples ([6]; after 1 week): higher than 98%
SMILES: CC(=O)N[C@H]1[C@H]([C@H](O)[C@H](O)CO)OC(O)(C(=O)O)C[C@@H]1O (stereo partly drawn) [Form 3, N-acetylneuraminic acid]

TGA Decomposition temperature [1]: at 190.2 °C
solubility ([2]; aqueous, read-out: Approximate solubility): 98.5 g/L (≈ 318 mM)
solubility ([2]; approximate, solvent addition, read-out: Aqueous Solubility, Solubility in g/L): 98.5 g/L (≈ 318 mM)
DSC (thermal events) Endotherm [8]: 188.6° ° C.
Hygroscopicity (GVS) [3]: very slightly hygroscopic
Stability when exposed to different humidity levels [3]: stable
XRPD post DVS [3]: no change
GVS mass difference [3]: 1.4%
Polymorphic form after GVS (XRPD) [3]: same polymorphic form (Form 1)
HPLC (purity) (HPLC-UV chemical purity): 99.5%
PLM (morphology), particle size [4]: <10 μm
PLM (morphology) [4]: Small needles
Stability as a physical form (XRPD) [5]: stable
Stability - XRPD post Stability ([5]; no single condition stated): no change
Form recovered from competitive slurry between Forms 1 and 2 ([9]; acetic acid): mixture of Forms 1 and 3
Form recovered from competitive slurry between Forms 1 and 3 ([9]; acetic acid): mixture of Form 1 and 3
Form recovered from competitive slurry between Forms 1 and 2 [9, 14]: Form 1 is recovered
Form recovered from competitive slurry between Forms 1 and 3 [9, 14]: Form 1 is recovered
Relative stability, competitive slurries between Forms 1 and 2 ([9]; all studied conditions): more stable than Form 2
Relative stability, competitive slurries between Forms 1 and 3 ([9]; all studied conditions except in acetic acid): more stable than Form 3
Overall relative stability of the form ([9]; competitive slurries, most of the studied conditions): thermodynamically most stable form
Chemical stability [6]: stable
N-acetyl-D-glucosamine Area % (HPLC) [6, 12]: 0.079% and 0.081%
Sialic acid Area % (HPLC) [6, 12]: 99.580% and 99.590%
N-acetyl-D-glucosamine Area % (HPLC) ([6]; after 1 week under 80° C.): 0.062%
N-acetyl-D-glucosamide known impurity [6, 13]: 0.076%
Sialic acid Area % (HPLC) [6, 13]: 99.705% and 99.711%
HPLC purity of recovered samples ([6]; after 1 week): higher than 99.5%
Form obtained from slurry (XRPD) ([10]; acetic acid, all time points): Form 1
Form obtained from slurry (XRPD) ([10]; ethyl acetate, all time points): Form 1
Time to full conversion to Form 5 in slurry ([10]; water and water/acetic acid (80:20 v/v)): ≤ 10 min
Form obtained from slurry (XRPD) ([10]; water, all time points (10 minutes to 28 hours)): Form 5
Form obtained from slurry (XRPD) ([10]; water/acetic acid (80/20 v/v), all time points): Form 5
SMILES: CC(=O)N[C@H]1[C@H]([C@H](O)[C@H](O)CO)OC(O)(C(=O)O)C[C@@H]1O (stereo partly drawn) [Form 1, N-acetylneuraminic acid]

Form after desolvation (XRPD) ([7]; 15 min at 100° C. under vacuum): converted to Form 1
SMILES: CC(=O)N[C@H]1[C@H]([C@H](O)[C@H](O)CO)OC(O)(C(=O)O)C[C@@H]1O (stereo partly drawn) [Form 4, N-acetylneuraminic acid]
